Measured values taken from patent publication US9487501B2, “Pyrazole carboxamide compounds and uses thereof” (Hoffmann-La Roche Inc., priority 2012, dated 2016).
Counter-ions that a name gives are not always drawn. Like-named read-outs stand apart in the source and are kept apart here.

How the values were obtained:
rat TAAR1 = rat TAAR1 (Rattus norvegicus (Rat), UniProt Q923Y9); test: Radioligand binding assay on rat TAAR1;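 further: stably transfected HEK293 cell membranes with a tritiated radioligand, 1 h incubation at 4 °C, nonspecific binding taken as binding with 10 µM unlabeled ligand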
mouse TAAR1 = mouse TAAR1 (Mus musculus (Mouse), UniProt Q923Y8); test: Radioligand binding assay on mouse TAAR1
[1] = read-out: Ki (μM) rat, rat TAAR1, membranes of HEK-293 cells, radioligand displacement
[2] = read-out: Ki (μM) mouse, mouse TAAR1, membranes of HEK-293 cells, radioligand displacement

Chain of rat TAAR1 (Q923Y9 whole entry): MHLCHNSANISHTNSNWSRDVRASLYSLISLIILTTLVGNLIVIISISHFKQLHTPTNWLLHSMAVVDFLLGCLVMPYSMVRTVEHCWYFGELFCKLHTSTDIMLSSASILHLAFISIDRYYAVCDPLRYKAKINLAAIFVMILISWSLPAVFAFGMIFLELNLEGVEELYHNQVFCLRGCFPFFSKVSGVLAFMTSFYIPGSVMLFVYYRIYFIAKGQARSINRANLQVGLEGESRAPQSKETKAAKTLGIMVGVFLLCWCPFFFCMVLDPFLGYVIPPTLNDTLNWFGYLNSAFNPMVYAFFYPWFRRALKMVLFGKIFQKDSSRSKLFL
Chain of mouse TAAR1 (Q923Y8 whole entry): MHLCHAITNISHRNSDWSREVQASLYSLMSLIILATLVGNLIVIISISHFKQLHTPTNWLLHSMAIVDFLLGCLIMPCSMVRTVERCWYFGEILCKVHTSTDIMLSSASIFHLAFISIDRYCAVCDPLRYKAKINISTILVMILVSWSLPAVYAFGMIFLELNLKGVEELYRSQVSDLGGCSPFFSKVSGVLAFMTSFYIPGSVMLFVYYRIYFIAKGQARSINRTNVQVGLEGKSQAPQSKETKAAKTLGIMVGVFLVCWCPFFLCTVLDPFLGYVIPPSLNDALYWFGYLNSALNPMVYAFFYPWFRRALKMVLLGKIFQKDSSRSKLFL

Row | Structure (SMILES) | Ki (rat TAAR1) [µM] | Ki (mouse TAAR1) [µM] | Ki (rat TAAR1; [1]) [µM] | Ki (mouse TAAR1; [2]) [µM]
1 | O=C(Nc1ccc(C2CCNC2)cc1)c1cnn(-c2ccc(OC(F)F)cc2)c1 (racemic) [Example 54, (RS)-1-(4-difluoromethoxy-phenyl)-1H-pyrazole-4-carboxylic acid (4-pyrrolidin-3-yl-phenyl)-amide] | 0.0011 | 0.0016 |  | 
2 | O=C(Nc1ccc(C2CCCNC2)cc1)c1cnn(-c2ccc(OC(F)F)cc2)c1 (racemic) [Example 55, (RS)-1-(4-difluoromethoxy-phenyl)-1H-pyrazole-4-carboxylic acid (4-piperidin-3-yl-phenyl)-amide hydrochloride] | 0.003 | 0.002 |  | 
3 | Cc1c(C(=O)Nc2ccc([C@H]3CNCCO3)cc2)cnn1-c1ccccc1 [Example 1, (S)-5-methyl-N-(4-(morpholin-2-yl)phenyl)-1-phenyl-1H-pyrazole-4-carboxamide hydrochloride] |  |  | 0.229 | 0.0086
4 | Nc1c(C(=O)Nc2ccc([C@H]3CNCCO3)cc2)cnn1-c1ccc(F)cc1 [Example 2, (S)-5-amino-1-(4-fluorophenyl)-N-(4-(morpholin-2-yl)phenyl)-1H-pyrazole-4-carboxamide dihydrochloride] |  |  | 0.401 | 0.0144
5 | COc1ccc(-n2cc(C(=O)Nc3ccc([C@H]4CNCCO4)cc3)cn2)cc1 [Example 3, (S)-1-(4-methoxyphenyl)-N-(4-(morpholin-2-yl)phenyl)-1H-pyrazole-4-carboxamide hydrochloride] |  |  | 0.0165 | 0.0025
6 | O=C(Nc1ccc([C@H]2CNCCO2)cc1)c1cnn(-c2ccc(F)cc2)c1 [Example 4, (S)-1-(4-fluorophenyl)-N-(4-(morpholin-2-yl)phenyl)-1H-pyrazole-4-carboxamide hydrochloride] |  |  | 0.0033 | 0.0007
7 | O=C(Nc1ccc([C@H]2CNCCO2)cc1)c1cnn(-c2cccc(F)c2)c1 [Example 5, (S)-1-(3-fluorophenyl)-N-(4-(morpholin-2-yl)phenyl)-1H-pyrazole-4-carboxamide hydrochloride] |  |  | 0.0039 | 0.0015
8 | N#Cc1ccc(-n2cc(C(=O)Nc3ccc([C@H]4CNCCO4)cc3)cn2)cc1 [Example 6, (S)-1-(4-cyanophenyl)-N-(4-(morpholin-2-yl)phenyl)-1H-pyrazole-4-carboxamide hydrochloride] |  |  | 0.007 | 0.0028
9 | O=C(Nc1ccc([C@H]2CNCCO2)cc1)c1cnn(-c2ccc(Cl)cn2)c1 [Example 7, (S)-1-(5-chloropyridin-2-yl)-N-(4-(morpholin-2-yl)phenyl)-1H-pyrazole-4-carboxamide hydrochloride] |  |  | 0.0046 | 0.0016
10 | N#Cc1ccc(-n2cc(C(=O)Nc3ccc([C@H]4CNCCO4)cc3)cn2)nc1 [Example 8, (S)-1-(5-cyanopyridin-2-yl)-N-(4-(morpholin-2-yl)phenyl)-1H-pyrazole-4-carboxamide hydrochloride] |  |  | 0.0147 | 0.0089
11 | O=C(Nc1ccc([C@H]2CNCCO2)cc1)c1cnn(-c2ccc(Br)cn2)c1 [Example 9, (S)-1-(5-bromopyridin-2-yl)-N-(4-(morpholin-2-yl)phenyl)-1H-pyrazole-4-carboxamide hydrochloride] |  |  | 0.0043 | 0.0017
12 | O=C(Nc1ccc([C@H]2CNCCO2)cc1)c1cnn(-c2ccc(I)cn2)c1 [Example 10, (S)-1-(5-iodopyridin-2-yl)-N-(4-(morpholin-2-yl)phenyl)-1H-pyrazole-4-carboxamide hydrochloride] |  |  | 0.0041 | 0.0012
13 | O=C(Nc1ccc([C@H]2CNCCO2)cc1)c1cnn(-c2ccc(C(F)(F)F)cn2)c1 [Example 11, (S)—N-(4-(morpholin-2-yl)phenyl)-1-(5-(trifluoromethyl)pyridin-2-yl)-1H-pyrazole-4-carboxamide hydrochloride] |  |  | 0.0023 | 0.0023
14 | O=C(Nc1ccc([C@@H]2CNCCO2)cc1)c1cnn(-c2ccc(F)cc2)c1 [Example 12, (R)-1-(4-fluorophenyl)-N-(4-(morpholin-2-yl)phenyl)-1H-pyrazole-4-carboxamide hydrochloride] |  |  | 0.0011 | 0.0012
15 | N#Cc1cccc(-n2cc(C(=O)Nc3ccc([C@H]4CNCCO4)cc3)cn2)c1 [Example 13, (S)-1-(3-cyanophenyl)-N-(4-(morpholin-2-yl)phenyl)-1H-pyrazole-4-carboxamide hydrochloride] |  |  | 0.0072 | 0.0023
16 | O=C(Nc1ccc([C@H]2CNCCO2)cc1)c1cnn(-c2cc(C(F)(F)F)ccn2)c1 [Example 14, (S)—N-(4-(morpholin-2-yl)phenyl)-1-(4-(trifluoromethyl)pyridin-2-yl)-1H-pyrazole-4-carboxamide hydrochloride] |  |  | 0.0019 | 0.0013
17 | O=C(Nc1ccc([C@H]2CNCCO2)cc1)c1cnn(-c2cc(Cl)ccn2)c1 [Example 15, (S)-1-(4-chloropyridin-2-yl)-N-(4-(morpholin-2-yl)phenyl)-1H-pyrazole-4-carboxamide hydrochloride] |  |  | 0.0036 | 0.0016
18 | O=C(Nc1ccc([C@H]2CNCCO2)cc1)c1cnn(-c2ccnc(Br)c2)c1 [Example 16, (S)-1-(2-bromopyridin-4-yl)-N-(4-(morpholin-2-yl)phenyl)-1H-pyrazole-4-carboxamide hydrochloride] |  |  | 0.0029 | 0.0035
19 | N#Cc1cc(Br)ccc1-n1cc(C(=O)Nc2ccc([C@H]3CNCCO3)cc2)cn1 [Example 17, (S)-1-(4-bromo-2-cyanophenyl)-N-(4-(morpholin-2-yl)phenyl)-1H-pyrazole-4-carboxamide hydrochloride] |  |  | 0.0015 | 0.0021
20 | COc1cccc(-n2cc(C(=O)Nc3ccc([C@H]4CNCCO4)cc3)cn2)n1 [Example 18, (S)-1-(6-methoxypyridin-2-yl)-N-(4-(morpholin-2-yl)phenyl)-1H-pyrazole-4-carboxamide hydrochloride] |  |  | 0.0029 | 0.001
21 | O=C(Nc1ccc([C@H]2CNCCO2)cc1)c1cnn(-c2ncc(C(F)(F)F)cc2F)c1 [Example 19, (S)-1-(3-fluoro-5-(trifluoromethyl)pyridin-2-yl)-N-(4-(morpholin-2-yl)phenyl)-1H-pyrazole-4-carboxamide hydrochloride] |  |  | 0.016 | 0.0135
22 | O=C(Nc1ccc([C@H]2CNCCO2)cc1)c1cnn(-c2ccnc(Cl)c2)c1 [Example 20, (S)-1-(2-chloropyridin-4-yl)-N-(4-(morpholin-2-yl)phenyl)-1H-pyrazole-4-carboxamide hydrochloride] |  |  | 0.0059 | 0.0041
23 | O=C(Nc1ccc([C@H]2CNCCO2)cc1)c1cnn(-c2ccc(OC(F)F)cc2)c1 [Example 21, (S)-1-(4-(difluoromethoxy)phenyl)-N-(4-(morpholin-2-yl)phenyl)-1H-pyrazole-4-carboxamide hydrochloride] |  |  | 0.004 | 0.0017
24 | O=C(Nc1ccc([C@H]2CNCCO2)cc1)c1cnn(-c2cccc(OC(F)F)c2)c1 [Example 22, (S)-1-(3-(difluoromethoxy)phenyl)-N-(4-(morpholin-2-yl)phenyl)-1H-pyrazole-4-carboxamide hydrochloride] |  |  | 0.0014 | 0.001
25 | N#Cc1ccc(-n2cc(C(=O)Nc3ccc([C@H]4CNCCO4)cc3)cn2)c(F)c1 [Example 23, (S)-1-(4-cyano-2-fluorophenyl)-N-(4-(morpholin-2-yl)phenyl)-1H-pyrazole-4-carboxamide hydrochloride] |  |  | 0.007 | 0.0041
